Experimental data published in patent US20080255238A1, “COMPOSITION CONTAINING A THIOUREA DERIVATIVE FOR PREVENTING OR TREATING PRURITIC OR IRRITANT SKIN DISEASES” (AMOREPACIFIC CORPORATION, priority 2004, published 2008).

Tests used:
Type in all cases: in vivo
ICR mice [1] = experiment: Itching induced by histamine in ICR mice, oral administration; conditions: for % Inhibition (mean ± SE): scratching frequency over 30 min, histamine 100 nmol/mouse i.d. 1 h after dosing
Text: Itching Induced by Histamine in ICR Mice
It is known that the itching response induced by histamine in rodents is generally weaker than that in humans (Kuraishi et al., 1995, Eur. J. Pharmacol. 275, pp 229-233). However, it is known that uniquely, ICR mice sensitively respond to histamine, and this leads to itching response (Maekawa et al., 2000, Jpn. J. Pharmacol. 84, pp 462-466). As is widely known, histamines are representative itching mediators and obviously induce itching in human subjects (Simone et al., 1987, Somatosens. Res. 5, pp 81-92). In this experiment, ICR mice received […]. One day before the experiment, the rostral part of the skin on the back of male ICR mice (28˜32 g, 5˜8 mice/group was clipped. The mice were fasted for 18 hours before experimentation. The drug (compound 1, 0.5 ml/mouse) was dissolved in hydroxypropyl-β-cyclodextrin (HP-β-CD; Mitsubishi Ltd., Japan), and then orally administered to the mice. One hour after the administration, histamine (100 nmol/50 μl/mouse) was dissolved in a physiological saline solution and injected intradermally into the back skin of mice. Immediately after the injection, the mice were placed in a transparent cage, and then the frequency of scratching of the injected site by the hind paws was counted for 30 minutes. The frequency of scratching in test groups administered with the drug was compared to that in a control group administered with histamine alone. The decrease in the frequency of scratching in the test groups was determined as an index of inhibitory effects on itching. The decrease in the frequency of scratching was expressed as a percentage of inhibition to determine inhibitory effects of each compound on itching.

BALB/C mice = experiment: Itching induced by compound 48/80 (C48/80) in BALB/C mice, oral administration; conditions: for % Inhibition (mean ± SE): scratching frequency over 30 min, C48/80 1 h after dosing, BALB/C mice; for inhibitory effects on itching (in words): C48/80, BALB/C mice
Text: Itching Induced by Compound 48/80 (C48/80) in BALB/C Mice
The frequency of scratching induced by an itching-inducing substance varies depending on mouse strain. For example, it was reported that BALB/C mice are less sensitive to histamines and serotonin than ICR mice (Inagaki et al., 2001, Skin Pharmacol. Appl. Skin Physiol., 14, pp 87-96). […] In this experiment, BALB/C mice received C48/80 to induce itching. One day before the experiment, the rostral part of the skin on the back of BALB/C mice (19˜21 g, 6˜12 mice/group) was clipped. After compound 1 was dissolved in HP-β-CD, and compounds 2 and 3 were dissolved in a physiological saline solution containing 10% ethanol and 10% Tween 80, the solutions were orally administered (10 ml/kg) to the mice. One hour after the administration, C48/80 (50 μg/50 μl/mouse) was dissolved in a physiological saline solution and injected intradermally into the back skin of mice. Immediately after the injection, the mice were housed in a transparent cage and then the frequency of scratching of the injected site by the hind paws was counted for 30 minutes. The frequency of scratching in test groups administered with the drugs was compared to that in a control group administered with C48/80 alone. The decrease in the frequency of scratching in the test groups was determined as an index of inhibitory effects on itching. The decrease in the frequency of scratching was expressed as a percentage of inhibition to determine inhibitory effects of each compound on itching.

ICR mice [2] = experiment: Itching induced by compound 48/80 (C48/80) in ICR mice, intradermal administration
Text: Itching Induced by Compound 48/80 (C48/80) in ICR Mice
Intradermal Administration
ICR mice suffer from itching upon administration of histamines, and C48/80 (condensation product of N-methyl-p-methoxyphenethylamine with formaldehyde, Sigma, U.S.A.) is a substance that stimulates connective tissues and skin mast cells to release mediators, such as histamines, causing itching. C48/80 causes itching when intradermally administered to humans (Rukwied et al., 2000, Br. J. Pharmacol., 142, pp 1114-1120). In this experiment, ICR mice received C48/80 to induce itching. One day before the experiment, the rostral part of the skin on the back of male ICR mice (28˜32 g, 4˜11 mice/group) was clipped. After the drug (compound 1, 50 μl/mouse) was dissolved in hydroxypropyl-β-cyclodextrin (HP-β-CD; Mitsubishi Ltd., Japan) and C48/80 (50 μg/50 μl/mouse) was dissolved in a physiological saline solution, the solutions were simultaneously injected intradermally into the back skin of mice. Immediately after the injection, the mice were placed in a transparent cage and then the frequency of scratching of the injected site by the hind paws was counted for 60 minutes. The frequency of scratching in test groups administered with the drug was compared to that in a control group administered with C48/80 alone. The decrease in the frequency of scratching in the test groups was determined as an index of inhibitory effects on itching. The decrease in the frequency of scratching was expressed as a percentage of inhibition to determine inhibitory effects of each compound on itching.

Row | Structure (SMILES) | % Inhibition (mean ± SE) (BALB/C mice; dose 3 mg) | % Inhibition (mean ± SE) (BALB/C mice; dose 10 mg) | % Inhibition (mean ± SE) (BALB/C mice; dose 30 mg) | inhibitory effects on itching (in words) (BALB/C mice) | also measured
1 | CN1CCCC(n2nc(Cc3ccc(Cl)cc3)c3ccccc3c2=O)CC1 (stereo not drawn) [Azelastine chloride, reference compound] |  |  |  |  | antipruritic effects (in words) (ICR mice [1]; histamine): potent antipruritic effects in a dose-dependent manner; % Inhibition (mean ± SE) (ICR mice [1]; dose 1 mg/mouse): 63.7 ± 26.6%; % Inhibition (mean ± SE) (ICR mice [1]; dose 10 mg/mouse): 91.7 ± 6.8%
2 | CC(C)(C)c1ccc(CNC(=S)NCc2ccc(NS(C)(=O)=O)c(Cl)c2)cc1 [Compound 2, 1-(4-t-butylbenzyl)-3-(3-chloro-4-methanesulfonylaminobenzyl)thiourea] | 0.89 ± 7.23% | 7.42 ± 10.43% | 44.53 ± 11.07% |  | 
3 | Cc1cc(CNC(=S)NCc2ccc(C(C)(C)C)cc2)ccc1NS(C)(=O)=O [Compound 3, 1-(4-t-butylbenzyl)-3-(3-methyl-4-methanesulfonylaminobenzyl)thiourea] | 8.21 ± 5.82% | 11.78 ± 15.26% | 38.76 ± 7.77% |  | 
4 | CN1CCC(=C2c3ccccc3CC(=O)c3sccc32)CC1 [Ketotifen, ketotifen, reference compound] |  | −24.91 ± 15.09% |  | no inhibitory effects on itching | 
5 | CN(C)CCC(c1ccc(Cl)cc1)c1ccccn1 (stereo not drawn) [chlorpheniramine, reference compound] | −22.90 ± 28.21% |  |  | no inhibitory effects on itching | inhibitory effects on itching (in words) (ICR mice [2]; C48/80, ICR mice): no inhibitory effects on itching; % Inhibition (mean ± SE) (ICR mice [2]; scratching frequency over 60 min, C48/80 50 μg/mouse i.d., ICR mice, dose 0.3 mg/mouse): −77.61 ± 70.54%
